# Key:
# [1] = target: T1, Lysosomal acid glucosylceramidase (Mus musculus, UniProt P17439); test: Specific inhibitory activity against Glucosylceramidase in mouse liver; Significant activity
# T1 sequence (P17439 whole entry): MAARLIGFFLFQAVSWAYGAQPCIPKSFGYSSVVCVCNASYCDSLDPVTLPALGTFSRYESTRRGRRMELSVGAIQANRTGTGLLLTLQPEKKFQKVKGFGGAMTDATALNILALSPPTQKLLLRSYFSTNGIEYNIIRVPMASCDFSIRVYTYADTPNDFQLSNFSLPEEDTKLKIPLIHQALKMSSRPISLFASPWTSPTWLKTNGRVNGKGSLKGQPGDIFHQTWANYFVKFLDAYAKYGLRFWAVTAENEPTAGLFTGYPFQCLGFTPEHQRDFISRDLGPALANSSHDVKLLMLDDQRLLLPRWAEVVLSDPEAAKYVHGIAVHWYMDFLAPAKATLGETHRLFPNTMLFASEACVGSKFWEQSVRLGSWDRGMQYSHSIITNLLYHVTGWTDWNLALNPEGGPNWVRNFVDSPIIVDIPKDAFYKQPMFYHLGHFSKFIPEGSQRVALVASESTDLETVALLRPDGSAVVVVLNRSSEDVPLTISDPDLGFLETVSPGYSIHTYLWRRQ
# [2] = target: T1, Lysosomal acid glucosylceramidase; test: Inhibitory activity against Glucosylceramidase in mouse liver relative to compound 5; Active; format: tissue-based
# [3] = target: T1, Lysosomal acid glucosylceramidase; test: Inhibitory activity against Glucosylceramidase in mouse liver at a concentration of 10e-4 M; NA is inactive; format: tissue-based
# [4] = target: T1, Lysosomal acid glucosylceramidase; test: Inhibitory activity against Glucosylceramidase in mouse liver; Significant activity
# [5] = target: T1, Lysosomal acid glucosylceramidase; test: Specific inhibitory activity against Glucosylceramidase in mouse liver; format: tissue-based
# [6] = target: T1, Lysosomal acid glucosylceramidase; test: Inhibitory activity against Glucosylceramidase in mouse liver; format: tissue-based
# Galactocerebrosidase = target: T2, Galactocerebrosidase (Mus musculus, UniProt P54818); test: Inhibitory activity against Galactocerebrosidase; NA is not active
# T2 sequence (P54818 whole entry): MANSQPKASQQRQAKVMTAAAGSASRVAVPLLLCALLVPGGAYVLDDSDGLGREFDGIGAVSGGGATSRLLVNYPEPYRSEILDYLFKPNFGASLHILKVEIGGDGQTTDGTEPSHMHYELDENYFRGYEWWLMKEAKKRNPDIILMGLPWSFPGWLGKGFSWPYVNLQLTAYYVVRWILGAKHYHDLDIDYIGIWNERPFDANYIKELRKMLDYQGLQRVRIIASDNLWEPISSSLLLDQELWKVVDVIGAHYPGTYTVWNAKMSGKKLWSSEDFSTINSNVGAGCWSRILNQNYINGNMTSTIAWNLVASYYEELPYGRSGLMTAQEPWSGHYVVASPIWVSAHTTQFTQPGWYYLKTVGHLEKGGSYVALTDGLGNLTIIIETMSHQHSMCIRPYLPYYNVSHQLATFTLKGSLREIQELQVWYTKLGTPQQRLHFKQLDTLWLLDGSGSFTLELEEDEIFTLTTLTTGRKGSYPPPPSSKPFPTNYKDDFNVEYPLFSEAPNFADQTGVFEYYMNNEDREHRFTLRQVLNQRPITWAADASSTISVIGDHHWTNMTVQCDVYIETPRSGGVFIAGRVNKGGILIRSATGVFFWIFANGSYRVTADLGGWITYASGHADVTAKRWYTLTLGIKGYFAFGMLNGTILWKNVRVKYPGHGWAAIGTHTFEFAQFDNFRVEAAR
smiles,measurement,setting,value
OC[C@@H]1[C@@H](O)[C@H](O)[C@@H](O)[C@@H]2O[C@H]12 [CYCLOPHELLITOL],IC50,[1],Significant activity
O[C@H]1[C@@H]2O[C@@H]2[C@H](O)C[C@@H]1O,IC50,[2],Active
O[C@@H]1[C@H](O)[C@H](O)C[C@H]2O[C@@H]12,IC50,[3],Not Active
O[C@@H]1[C@@H](O)[C@H](O)C[C@@H](O)[C@H]1O,IC50,[4],Significant activity
O[C@@H]1[C@@H](O)[C@H](O)C[C@H](O)[C@@H]1O,IC50,[4],Significant activity
O[C@H]1[C@H](O)[C@H](O)C[C@@H]2O[C@H]12,IC50,[3],Not Active
O[C@H]1[C@H]2O[C@H]2[C@H](O)C[C@H]1O,IC50,[3],Not Active
O[C@H]1[C@H](O)[C@@H](O)[C@@H]2O[C@@H]2[C@@H]1O [CONDURITOL B EPOXIDE],IC50,[5],8.9 µM
O[C@@H]1[C@@H](O)[C@H](O)C[C@H]2O[C@@H]12,IC50,[6],0.96 µM
same,IC50,Galactocerebrosidase,Not Active
O[C@@H]1[C@H]2O[C@H]2[C@H](O)C[C@@H]1O,IC50,[3],Not Active
O[C@@H]1[C@H]2O[C@H]2[C@@H](O)C[C@H]1O,IC50,[3],Not Active
O[C@@H]1[C@H]2O[C@H]2[C@H](O)C[C@H]1O,IC50,[6],98 µM
O[C@@H]1[C@H](O)[C@H]2O[C@H]2C[C@H]1O,IC50,[3],Not Active
O[C@@H]1[C@H](O)[C@H]2O[C@H]2C[C@@H]1O,IC50,[3],Not Active
O[C@H]1[C@@H]2O[C@@H]2[C@@H](O)C[C@H]1O,IC50,[3],Not Active
O[C@@H]1[C@@H](O)[C@H](O)C[C@@H]2O[C@H]12,IC50,[2],Active
